Legend:
[1] = tested on: Aspergillus flavus; experiment: Antimicrobial activity against pathogens (MIC80 / MBC100); assay type: cell-based; conditions: concentration of D4E1 necessary to kill 100% of the pathogens
Description: (§1) A comparison of antimicrobial activity for these two naturally occurring peptides against various pathogens (combined fungal and bacterial) is summarized below

[2] = tested on: Aspergillus fumigatus; experiment: as above; assay type: cell-based; conditions: concentration necessary to kill 100%
Description: as §1

[3] = tested on: Erwinia stewartii; experiment: as above; assay type: cell-based; conditions: concentration necessary to kill 100%
Description: as §1

[4] = tested on: Fusarium moniliforme; experiment: as above; assay type: cell-based; conditions: concentration necessary to kill 100%
Description: as §1

[5] = tested on: Fusarium oxysporum; experiment: as above; assay type: cell-based; conditions: concentration necessary to kill 100%
Description: as §1

[6] = tested on: Xanthomonas campestris; experiment: as above; assay type: cell-based; conditions: concentration necessary to kill 100%
Description: as §1

[7] = tested on: bacteria; experiment: Antibacterial activity of the peptides, broth microdilution MIC, mean activity (Table II); assay type: cell-based; conditions: overnight incubation (18 to 24 h)
Protocol: Minimum Inhibitory Concentration or MIC for the purpose of this invention is the lowest concentration of an antimicrobial that will inhibit the visible growth of a microorganism after overnight incubation. Minimum inhibitory concentrations are important in diagnostic laboratories to confirm resistance of microorganisms to an antimicrobial agent and also to monitor the activity of new antimicrobial agents. A MIC is generally regarded as the most basic laboratory measurement of the activity of an antimicrobial agent against an organism. MBC is defined as the lowest concentration of an antimicrobial agent needed to kill 99.9% of the initial organism inoculum. Presently, specific guidelines for interpretation are not available; therefore, a clinician knowledgeable in both bactericidal testing and infectious diseases should be available to interpret the results.
MICs were determined by the broth microdilution method described by the National Committee for Clinical Laboratory Standards (17). Serial twofold dilutions of each peptide solution were prepared (final volume, […]) in microtiter trays with appropriate medium. Each dilution series included control wells containing bacteria without peptide. A total of […] of the adjusted inoculum (100,000 organisms) was added to each well, and then the trays were incubated at
in ambient air overnight (18 to 24 h). The MIC of each peptide for each isolate was read as the lowest concentration of peptide that inhibited visible growth of the organism.
The above in vitro tests and analyses were conducted on a set of designed peptides of the present invention; and, for comparative purposes, naturally derived molecules.

[8] = tested on: red blood cells (erythrocytes); experiment: Hemolytic activity of the peptides (hemoglobin release, absorbance at 412 nm); assay type: cell-based
Protocol: Hemolysis as defined herein is an in vitro assay where the compounds tendency to lyse red blood cells is determined. Presumably, the compounds that are less hemolytic will be less toxic in vivo. Increasing amounts of compound are added to solutions containing red blood cells and left for a specified time and then lysis is determined spectrophotometrically by measuring hemoglobin release.
A small volume of a suspension of erythrocytes (about 100 million) is kept on ice with a specific amount of lytic peptide. The cells are then placed in a 37° C. water bath for 10 min, vortexed and centrifuged at 1000 g for 2 min. The supernatant was removed and the amount of hemoglobin that was released was determined by the samples' absorbance at 412 nm. Control values without added peptide were subtracted from the absorbance readings.
The numerical difference between the value of the mean of hemolysis and the mean of the activity is a useful way to determine those peptides having the most desired activity.

[9] = tested on: pathogens of cotton, poplar and pome fruits such as pears and apples; conditions: tested by a number of labs throughout the world; cited from earlier work
[10] = tested on: angiogenesis; conditions: known activity, seen as a safety problem for humans; cited from earlier work

| Sequence | D4E1 MBC100 [1] | D4E1 MBC100 [2] | D4E1 MBC100 [3] | D4E1 MBC100 [4] | D4E1 MBC100 [5] | D4E1 MBC100 [6] | Mean Activity [7] | Mean of Hemolysis [8] | efficacy in limiting plant pathogens [9] | activities in mammals [10] |
| --- | --- | --- | --- | --- | --- | --- | --- | --- | --- | --- |
| FKLRAKIKVRLRAKIKL [D4E1, D4E1 (AgroMed), earlier synthetic lytic peptide tested by a number of labs] | 12 µM | 12 µM | 1 µM | 3 µM | 3 µM | 2 µM | 0.77 µM | 3.6 µM | efficacious in limiting pathogens of cotton, poplar and pome fruits |  |
| RRRPRPPYLPRPRPPPFFPPRLPPRIPPGFPPRFPPRFP [PR39, antimicrobial peptide found in swine] |  |  |  |  |  |  |  |  |  | stimulation of angiogenesis |

Reference: US9163066B2, “Antimicrobial lytic peptides” (priority 2010, dated 2015)
